{"source": "patent US6200591A", "about": "“Method of administration of sildenafil to produce instantaneous response for the treatment of erectile dysfunction” (priority 1998, dated 2001)", "key": {"[1]": {"details": "intracavernosal, cited from earlier work; for Results of i.c. injection in erectile dysfunction: either alone or in combination"}, "[2]": {"details": "currently used oral route; cited from earlier work"}, "[3]": {"assay": "Absorption of solubilized sildenafil from the nasal cavity of rats (blood concentration after intranasal vs intravenous administration)", "assay_type": "in vivo", "details": "for Concentration of sildenafil in the blood of rats, intranasal, mean: n = 5; for Concentration of sildenafil in the blood of rats, intravenous, mean: n = 3", "protocol": "These experiments determine the bioavailability of sildenafil, or derivatives thereof, after nasal administration and compare it to that after intravenous administration. In particular, the present experiment determined the absorption of sildenafil into the blood of rats following intranasal administration of a formulation in which the sildenafil was solubilized by the addition of mesylic acid (see below).\nThe nasal absorption of sildenafil, or derivatives thereof, were measured using an in vivo technique in rats. Rats were fasted overnight prior to experimentation. Surgical procedures were performed under equithesin anesthesia (3 ml/kg, i.p.). An incision was made in the neck of each rat, and the trachea cannulated with polyethylene tubing (PF-260). A closed end tube was inserted through the esophagus to the posterior part of the nasal cavity to prevent drug from entering the esophagus. The nasopalatine passage was closed with an adhesive agent to prevent drainage of the drug from the nasal cavity to the mouth.\nThe jugular vein and femoral artery were cannulated with polyethylene tubing for intravenous drug administration and intra-arterial blood sampling.\nSolutions of sildenafil hydrochloride (2 and 4 mg/rat/50 μl) were prepared in water and administered through the right nostril using a microsyringe. For intravenous administration, the same dose of the drug was injected into the jugular vein (1 ml/kg body weight). […]\nBioavailability of nasally administered drug was calculated by comparing the plasma drug concentrations between nasal and intravenous delivery routes and expressed as a percentage of the intravenous bioavailability.\nThe solution instilled into the nasal cavities of the rats in this experiment had the following composition:\nAdjust the pH to 2.8 to 3.0 with 0.05M NaOH\nAt various times following the intranasal and intravenous administration of sildenafil to rats, the concentrations of sildenafil in blood were determined using the following analytical method:\nOne hundred microliters of rat plasma was treated with 25 microliters of 1M monochloroacetic acid to denature the plasma proteins and release free sildenafil. Seventy-five microliters of acetonitrile was then added to precipitate the proteins. This solution was centifuged for 5 minutes at 5,000 g. The clear supernatant was injected onto the HPLC column.\nThe HPLC system consisted of the following:\nThe concentrations are expressed as areas under the HPLC curves×10^-4."}, "[4]": {"assay": "Peak plasma concentration time / response in humans, current oral tablet formulation vs intranasal route", "assay_type": "in vivo", "details": "indicated by rat results"}, "[5]": {"details": "sublingual, cited from earlier work"}, "[6]": {"details": "cited from earlier work"}, "[7]": {"assay": "Solubility of the citrate salt in water", "assay_type": "physicochemical"}}, "note": "Entries after “also recorded” stand apart in the source; their conditions may differ. Structures can show the parent of a compound that is named as a salt. Ends that are not written are not given here."}
{"compound": "CCCCC[C@H](O)/C=C/[C@H]1[C@H](O)CC(=O)[C@@H]1CCCCCCC(=O)O", "note": "[PGE-1]", "values": [{"measurement": "Results of i.c. injection in erectile dysfunction", "setting": "[1]", "result": "good results"}]}
{"compound": "CCCc1nn(C)c2c(=O)[nH]c(-c3cc(S(=O)(=O)N4CCN(C)CC4)ccc3OCC)nc12", "note": "[Sildenafil, 5-[2-ethoxy-5-(4-methyl-1-piperazinylsulphonyl)-phenyl]-1-methyl-3-n-propyl-1,6-dihydro-7H-pyrazolo[4,3-d]pyrimidin-7-one]", "values": [{"measurement": "Time to response, oral route", "setting": "[2]", "result": "≥ 60", "unit": "min"}, {"measurement": "Effectiveness of intranasal compared with intravenous administration", "setting": "[3]; intranasal vs intravenous", "result": "as effective as intravenous administration"}, {"measurement": "Absorption following intranasal administration", "setting": "[3]; intranasal, comparison of areas under blood concentration versus time curves with intravenous (FIG. 1)", "result": "complete and very rapid absorption; also recorded: rapidly and complete absorbed"}, {"measurement": "Concentration of sildenafil in the blood of rats, intranasal, mean", "setting": "[3]; intranasal", "result": "11.7 areas under the HPLC curves×10"}, {"measurement": "Concentration of sildenafil in the blood of rats, intranasal, mean", "setting": "[3]; intranasal, time 2 min", "result": "12.1 areas under the HPLC curves×10"}, {"measurement": "Concentration of sildenafil in the blood of rats, intranasal, mean", "setting": "[3]; intranasal, time 5 min", "result": "25.5 areas under the HPLC curves×10"}, {"measurement": "Concentration of sildenafil in the blood of rats, intranasal, mean", "setting": "[3]; intranasal, time 10 min", "result": "38.2 areas under the HPLC curves×10"}, {"measurement": "Concentration of sildenafil in the blood of rats, intranasal, mean", "setting": "[3]; intranasal, time 15 min", "result": "43.5 areas under the HPLC curves×10"}, {"measurement": "Concentration of sildenafil in the blood of rats, intranasal, mean", "setting": "[3]; intranasal, time 20 min", "result": "32.6 areas under the HPLC curves×10"}, {"measurement": "Concentration of sildenafil in the blood of rats, intranasal, mean", "setting": "[3]; intranasal, time 30 min", "result": "31.0 areas under the HPLC curves×10"}, {"measurement": "Concentration of sildenafil in the blood of rats, intranasal, mean", "setting": "[3]; intranasal, time 40 min", "result": "22.7 areas under the HPLC curves×10"}, {"measurement": "Concentration of sildenafil in the blood of rats, intranasal, mean", "setting": "[3]; intranasal, time 50 min", "result": "19.6 areas under the HPLC curves×10"}, {"measurement": "Concentration of sildenafil in the blood of rats, intravenous, mean", "setting": "[3]; time 0 min", "result": "188.8 areas under the HPLC curves×10"}, {"measurement": "Concentration of sildenafil in the blood of rats, intravenous, mean", "setting": "[3]; time 2 min", "result": "84.7 areas under the HPLC curves×10"}, {"measurement": "Concentration of sildenafil in the blood of rats, intravenous, mean", "setting": "[3]; time 5 min", "result": "47.7 areas under the HPLC curves×10"}, {"measurement": "Concentration of sildenafil in the blood of rats, intravenous, mean", "setting": "[3]; time 10 min", "result": "32.0 areas under the HPLC curves×10"}, {"measurement": "Concentration of sildenafil in the blood of rats, intravenous, mean", "setting": "[3]; time 15 min", "result": "19.5 areas under the HPLC curves×10"}, {"measurement": "Concentration of sildenafil in the blood of rats, intravenous, mean", "setting": "[3]; time 20 min", "result": "17.9 areas under the HPLC curves×10"}, {"measurement": "Concentration of sildenafil in the blood of rats, intravenous, mean", "setting": "[3]; time 30 min", "result": "16.0 areas under the HPLC curves×10"}, {"measurement": "Concentration of sildenafil in the blood of rats, intravenous, mean", "setting": "[3]; time 40 min", "result": "14.6 areas under the HPLC curves×10"}, {"measurement": "Concentration of sildenafil in the blood of rats, intravenous, mean", "setting": "[3]; time 50 min", "result": "7.6 areas under the HPLC curves×10"}, {"measurement": "Tmax", "setting": "[3]; rat, in vivo, rats, intranasal, approximately, read-out: Time of peak blood concentration", "result": "10 to 15", "unit": "min"}, {"measurement": "Response in humans, intranasal route vs current oral tablet", "setting": "[4]", "result": "much more rapid response"}]}
{"compound": "CN1CCc2cccc3c2[C@H]1Cc1ccc(O)c(O)c1-3", "note": "[apomorphine]", "values": [{"measurement": "Effect on erectile function", "setting": "[5]", "result": "restore normal erectile function"}, {"measurement": "Men returned to sexual potency", "setting": "[5]; men whose dysfunction had psychological origins", "result": "about 70%"}]}
{"compound": "O=[N+]([O-])OCC(CO[N+](=O)[O-])O[N+](=O)[O-]", "note": "[glyceryl trinitrate (GTN), glyceryl trinitrate]", "values": [{"measurement": "Effect of patches applied to the penis", "setting": "[6]", "result": "effective"}, {"measurement": "Side-effects of patches applied to the penis", "setting": "[6]", "result": "produces side-effects in both patient and partner"}]}
{"compound": "COc1ccc(Cc2nccc3cc(OC)c(OC)cc23)cc1OC", "note": "[papaverine]", "values": [{"measurement": "Results of i.c. injection in erectile dysfunction", "setting": "[1]", "result": "good results"}]}
{"compound": "CC(COc1ccccc1)N(CCCl)Cc1ccccc1", "note": "(stereo not drawn) [phenoxybenzamine]", "values": [{"measurement": "Results of i.c. injection in erectile dysfunction", "setting": "[1]", "result": "good results"}]}
{"compound": "Cc1ccc(N(CC2=NCCN2)c2cccc(O)c2)cc1", "note": "[phentolamine]", "values": [{"measurement": "Results of i.c. injection in erectile dysfunction", "setting": "[1]", "result": "good results"}]}
{"compound": "CCCc1nn(C)c2c(=O)[nH]c(-c3cc(S(=O)(=O)N4CCN(C)CC4)ccc3OCC)nc12", "note": "[sildenafil citrate]", "values": [{"measurement": "solubility", "setting": "[7]", "result": 3500, "unit": "µg/mL"}]}
{"compound": "vasoactive intestinal polypeptide (VIP): vasoactive intestinal polypeptide (HSDAVFTDNYTRLRKQMAVKKYLNSILN; ends and bridges not checked; UniProt P01282 125-152, looked up)", "values": [{"measurement": "Activity i.c.", "setting": "[1]", "result": "active i.c."}]}
